Columns and labels:
PfPMT = test system: PfPMT; parameters: method as in PMID 20085640, PMID 24145416; settings: cited from earlier work
PkPMT = target: T1, PkPMT (Plasmodium knowlesi, UniProt A0A384KJX3); test: radiometric PMT transmethylation assay, inhibition of PkPMT; type: biochemical; settings: P-Etn 2 mM, SAM 1.5 mM; inhibitor 0, 100, 500, 1000 μM; read-out: IC50, inhibition of PkPMT activity
T1 sequence (A0A384KJX3 1-264): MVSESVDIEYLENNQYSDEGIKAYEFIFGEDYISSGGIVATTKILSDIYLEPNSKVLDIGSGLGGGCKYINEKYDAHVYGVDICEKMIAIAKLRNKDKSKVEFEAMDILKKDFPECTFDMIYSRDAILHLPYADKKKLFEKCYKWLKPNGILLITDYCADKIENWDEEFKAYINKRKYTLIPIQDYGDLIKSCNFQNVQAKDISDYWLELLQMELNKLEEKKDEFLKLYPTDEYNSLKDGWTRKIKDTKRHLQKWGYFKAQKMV
Protocol: Figure 3 Amodiaquine (AQ) and NSC158011 inhibit the activity of PvPMT and PkPMT. Enzyme inhibition assays with different concentrations of Amodiaquine (AQ), NSC158011 and Chloroquine (CQ) were carried out at constant P-Etn (2 mM) and SAM (1.5 mM) concentrations. The activity in the absence of any drug was taken as 100% and % enzyme activity was calculated in the presence of different drug concentrations (100, 500, 1000 μM). To determine the concentration that results in 50% inhibition of enzyme activity (IC50), the data were fitted to a non-linear regression analysis in the following equation Y = 100/(1 + ([X]/IC50)), where Y is % enzyme activity and X is drug concentration using Graph pad software.
For enzyme kinetics studies recombinant histidine-tagged proteins were expressed using 1 mM IPTG for 4 h, purified using Ni-affinity purification and dialyzed. As expected, purified proteins migrated in SDS-PAGE gels at approximately 31 kDa. The purified proteins were stored in HEPES-KOH buffer (pH 7.4) at 4°C and were assayed within a month of purification. During this time, the integrity of the protein was assessed by SDS-PAGE. The kinetic properties of enzymes were assessed using radiometric assay wherein incorporation of radioactive labeled methyl donor (100nCi [methyl-^14C] SAM, Perkin elmer NEC363010UC) or (200nCi [methyl-^3H] SAM, Perkin Elmer NET155H250UC) was measured. […]

SMILES: CCN(CC)Cc1cc(Nc2ccnc3cc(Cl)ccc23)ccc1O [AQ, amodiaquine]
- mode of inhibition of PfPMT (PfPMT): non-competitive inhibitors
- IC50 (PkPMT): 398 µM

Source: PMC4357015, “Structure, Function and Inhibition of the Phosphoethanolamine Methyltransferases of the Human Malaria Parasites Plasmodium vivax and Plasmodium knowlesi” (Scientific Reports, 2015)
